Data set [1] addresses T1, BCL2A1/BID (Homo sapiens, UniProt Q16548).
T1 sequence (Q16548 whole entry): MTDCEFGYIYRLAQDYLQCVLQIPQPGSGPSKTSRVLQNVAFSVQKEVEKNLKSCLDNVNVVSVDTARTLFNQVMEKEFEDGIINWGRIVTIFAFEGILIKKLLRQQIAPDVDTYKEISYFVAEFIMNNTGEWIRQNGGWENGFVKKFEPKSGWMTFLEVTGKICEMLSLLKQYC
T1 sequence (P55957 whole entry): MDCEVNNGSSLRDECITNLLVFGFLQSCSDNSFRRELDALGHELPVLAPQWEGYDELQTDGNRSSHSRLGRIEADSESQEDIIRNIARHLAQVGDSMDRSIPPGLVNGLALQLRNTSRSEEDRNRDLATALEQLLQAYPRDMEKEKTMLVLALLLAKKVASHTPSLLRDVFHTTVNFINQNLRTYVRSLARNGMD
As to the kind of experiment: Inhibition of BFL-1/ BH3 (unknown origin) interaction incubated for 2 hrs by TR-FRET assay. The format is protein assay.

The subject of data set [2] is SU-DHL-1. The experiment in a line: Induction of apoptosis in human SU-DHL-1 cells assessed as caspase activation in presence of AZD5991 incubated for 6 hrs by caspaseGlo 3/7 reagent based assay. The format is functional, cell-based. The note with it: SU-DHL-1, 6 h.
Data set [3] is described as follows: Metabolic stability in human liver microsome assessed as intrinsic clearance. The format is ADME. The following applies: human liver microsomes, read-out: CLH.
Data set [4] can be described thus: GSH reactivity in PBS buffer at pH 7.4 assessed as half life by LC-UV/MS analysis. The format is physicochemical.
Data set [5] can be described thus: Metabolic stability in rat hepatocytes assessed as intrinsic clearance measured per 10^6 cells. The format is ADME, cell-based, Hepatocyte.
A short description of data set [6]: Lipophilicity, log D of compound in 1-octanol at pH 7.4 incubated for 4 hrs by HPLC-UV analysis. The format is physicochemical. The note with it: 1-octanol / aqueous phase at pH 7.4, pH 7.4.
Data set [7] concerns the target Induced myeloid leukemia cell differentiation protein Mcl-1 (Homo sapiens, UniProt Q07820). The experiment in a line: Inhibition of MCL1 (unknown origin) by FRET assay.
Data set [8] can be described thus: Metabolic stability in human hepatocytes assessed as intrinsic clearance measured per 10^6 cells. The data set is classed as ADME, cell-based, Hepatocyte. The note with it: read-out: CLH.
Data set [9] is described as follows: Metabolic stability in mouse hepatocytes assessed as intrinsic clearance measured per 10^6 cells. The following applies: read-out: CLH. The data set is classed as ADME, cell-based, Hepatocyte.
The subject of data set [10] is SU-DHL-1. As to the kind of experiment: Antiproliferative activity against human SU-DHL-1 cells assessed as cell viability incubated for 24 hrs by celltiter-glo assay. The data set is classed as functional, cell-based. The note with it: SU-DHL-1, 24 h.

Consider 17 compounds from ChEMBL document CHEMBL6074680, “Structure-Based Discovery of a Series of Covalent, Orally Bioavailable, and Selective BFL1 Inhibitors” (J Med Chem, 2024).

The structures appear in SMILES notation.

Chain of Induced myeloid leukemia cell differentiation protein Mcl-1 (Q07820 whole entry): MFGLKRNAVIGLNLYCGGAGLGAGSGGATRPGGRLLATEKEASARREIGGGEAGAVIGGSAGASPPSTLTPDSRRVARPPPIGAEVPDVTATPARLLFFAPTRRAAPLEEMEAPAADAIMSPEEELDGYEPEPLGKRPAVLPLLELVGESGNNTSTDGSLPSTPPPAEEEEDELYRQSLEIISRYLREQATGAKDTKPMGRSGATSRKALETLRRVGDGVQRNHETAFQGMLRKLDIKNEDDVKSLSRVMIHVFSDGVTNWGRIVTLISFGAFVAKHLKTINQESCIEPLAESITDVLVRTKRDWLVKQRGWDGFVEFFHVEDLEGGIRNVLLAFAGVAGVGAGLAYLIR

Regarding `C=CC(=O)N(c1ccc(O[C@@H]2CC[C@@H](N)C2)cc1)[C@H](c1ccc(Cl)cc1)c1cncnc1`, the 50% inhibitory concentration (IC50) in [1] was 33 nM. In addition, the EC50 in [2] is 120 nM.
The matching figures for `C=CC(=O)N(c1ccc(O[C@@H]2CC[C@@H](N)C2)c(Cl)c1)[C@@H](C)c1ccc(Cl)cc1`: 24 nM and 120 nM.
The compound `C[C@@H](c1ccc(Cl)cc1)N(C(=O)/C=C/CN(C)C)c1ccc(O[C@@H]2CC[C@@H](N)C2)cc1` returned a half-maximal inhibitory concentration (IC50) in data set [1] of 90 nM. That is a double-digit nanomolar value.
`C=C(Cl)C(=O)N(Cc1ccc(C(F)(F)F)cc1)c1ccc(O[C@@H]2CC[C@@H](N)C2)cc1` (racemic): the microsomal CLint in data set [3] amounted to 7.8 µL/min/mg. In [1], this compound yielded an IC50 of 1000 nM. The half-life in data set [4] amounted to 1.42 h. Moreover, the hepatocyte CLint in data set [5] (hepatocytes) is 52 µL/min/1e6 cells. The logD at 4 h in [6] amounted to 2.4.
For the compound `CN1CCC[C@@H]1/C=C/C(=O)N(Cc1ccc(Cl)cc1)c1ccc(O[C@@H]2CC[C@@H](N)C2)cc1`, in data set [1], the concentration for half-maximal inhibition (IC50) came to 240 nM.
With `C=CC(=O)N(c1ccc(O[C@@H]2CC[C@@H](NC(=O)N[C@H]3CCNC3)C2)cc1)[C@@H](C)c1ccc(Cl)cc1`, the concentration for half-maximal inhibition (IC50) in [1] was 29 nM; in data set [7], over 100000 nM. For the same compound, the EC50 in data set [2] is 3100 nM.
In the case of `C=CC(=O)N(c1ccc(O[C@@H]2CC[C@@H](NC(=O)CCCN(C)C)C2)cc1)[C@@H](C)c1ccc(Cl)cc1`, in [1], the IC50 came out at 74 nM. Besides, in [2], the half-maximal effective concentration (EC50) worked out at 610 nM.
As for `CC#CC(=O)N(c1ccc(O[C@@H]2CC[C@@H](N)C2)cc1)[C@@H](C)c1ccc(Cl)cc1`, inhibition in data set [1] was half-maximal at 300 nM (IC50). That is a sub-micromolar value.
The same measure, in the same setting: as for `CNS(=O)(=O)OCC(=O)N(Cc1ccc(Cl)cc1)c1ccc(O[C@@H]2CC[C@@H](N)C2)cc1`, the figure is 6500 nM.
`C=CC(=O)N(c1ccc(O[C@@H]2CC[C@@H](NC(=O)N[C@@H]3CCS(=O)(=O)C3)C2)c(F)c1)[C@@H](CC(C)(C)O)c1ccc(Cl)cc1` gave an IC50 in [1] of 4.2 nM. The values for the EC50 in data set [2] and in [10] were 19 nM and 49 nM, respectively. The hepatocyte CLint in data set [8] was found to be 5.3 µL/min/1e6 cells; in data set [5] (rat hepatocytes, read-out: CLH), 52 µL/min/1e6 cells; in data set [9], 49 µL/min/1e6 cells. In data set [6], this compound came in with a log distribution coefficient (logD) at 4 h of 3.1.
In data set [1], `C=CC(=O)N(c1ccc(O[C@@H]2CC[C@@H](N)C2)c(C#N)c1)[C@@H](C)c1ccc(Cl)cc1` returned an IC50 of 14 nM. In addition, the half-maximal effective concentration (EC50) in data set [2] was determined as 120 nM.
The compound `C=CC(=O)N(c1ccc(O[C@@H]2CC[C@@H](NC(=O)NCCN(C)C)C2)c(Cl)c1)[C@@H](C)c1ccc(Cl)cc1` displayed a concentration for half-maximal inhibition (IC50) in [1] of 4.5 nM. Further, the concentration giving a half-maximal response (EC50) in data set [2] is 28 nM; in [10] it was 72 nM. Further, the hepatocyte CLint in data set [8] is 9.8 µL/min/1e6 cells; in [5] (rat hepatocytes, read-out: CLH), 17 µL/min/1e6 cells; in data set [9], 42 µL/min/1e6 cells. For the same compound, the log distribution coefficient (logD) at 4 h in [6] came out at 3.5.
Turning to `C=CC(=O)N(c1ccc(O[C@@H]2CC[C@@H](N)C2)cc1OC)[C@@H](C)c1ccc(Cl)cc1`, half-maximal inhibition in [1] (IC50) was put at 880 nM. The EC50 in data set [2] worked out at 2400 nM.
As to `C=C(F)C(=O)N(Cc1ccc(C(F)(F)F)cc1)c1ccc(O[C@@H]2CC[C@@H](N)C2)cc1` (racemic), the concentration for half-maximal inhibition (IC50) in [1] was over 7800 nM.
The same measure, in the same setting: as for `C=C(C)C(=O)N(Cc1ccc(C(F)(F)F)cc1)c1ccc(O[C@@H]2CC[C@@H](N)C2)cc1` (racemic), the figure is over 10000 nM.
In [1], `C=CC(=O)N(c1ccc(O[C@@H]2CC[C@@H](N)C2)cc1)[C@H](CNS(C)(=O)=O)c1ccc(Cl)cc1` returned a half-inhibitory concentration (IC50) of 2800 nM. Further, in [2], the EC50 was over 10000 nM.
Compound `C=CC(=O)N(c1ccc(O[C@@H]2CC[C@@H](NC(=O)NCC(C)(C)N(C)C)C2)c(F)c1)[C@@H](C)c1ccc(Cl)cc1` yielded an IC50 in data set [1] of 3.9 nM. Further, the EC50 was found to be 30 nM in data set [2] and 87 nM in data set [10]. Besides, the hepatocyte CLint was determined as 6.1 µL/min/1e6 cells in [8]; 14 µL/min/1e6 cells in [5] (rat hepatocytes, read-out: CLH); 73 µL/min/1e6 cells in data set [9]. The compound further yielded a pH-dependent lipophilicity (logD) at 4 h in data set [6] of 2.8.
